Data on 1 compound can be found in paper PMC11449324, “Functional comparison of human and murine equilibrative nucleobase transporter 1” (PLOS ONE, 2024).

Where two headings read alike, the source gives them in different places.

For one experiment, the system named is L1210 cells. Nature of the experiment: MTT cell viability assay, L1210. It counts as cell-based, murine. The conditions noted are these: Mus musculus, L1210, 48 h, single-phase curve. As for the experimental part:
(§1) Transfected-HEK293, MOLT-4, and L1210 cells were seeded into 24-well plates at a density of 1.1x10^5 cells per well in complete culture medium. […] Medium containing no cells was used to determine spontaneous MTT reduction (background). In transfected-HEK293 cells, media was removed via a vacuum-powered aspirator and replaced with 150 μL of Dulbecco’s phosphate buffered saline (DPBS—137 mM NaCl, 2.7 mM KCl, 6.3 mM Na2HPO4, 1.5 mM KH2PO4, 0.5 mM MgCl2, 0.9 mM CaCl2, pH 7.4) containing MTT (1 mg/mL) for 90 minutes at 37°C. In MOLT-4 and L1210, cell suspension was transferred to 1.5 mL microcentrifuge tubes and centrifuged for 10 minutes at 3000 rcf. Following centrifugation, media was removed via gentle pipetting and replaced with 150 μL of DPBS containing MTT (1 mg/mL) for 90 minutes at 37°C. Microcentrifuge tubes were centrifuged again for 15 minutes at 23,500 rcf, and then DPBS containing MTT was removed via a vacuum-powered aspirator. The resultant formazan crystals were solubilized in 500 μL of DMSO and transferred to a 96-well plate in 200 μL duplicates. Absorbance was measured at 570 nm, in a SpectraMax® i3x Multi-Mode Detection Platform (Molecular Devices, San Jose, CA). After background subtraction, % cell viability was calculated as the ratio of absorbance in the presence of test compound to that measured with vehicle alone (X 100).

The target of experiment [1] is T1, mENBT1 (slc43a3-encoded mouse ENBT1) (Mus musculus, UniProt A2AVZ9).
T1 construct: Oligonucleotides corresponding to the coding region of SLC43A3 (NM_001278201) or slc43a3 (NM_021398); expressed in transfected cells; HEK293-mslc43a3
T1 sequence (A2AVZ9 1-502): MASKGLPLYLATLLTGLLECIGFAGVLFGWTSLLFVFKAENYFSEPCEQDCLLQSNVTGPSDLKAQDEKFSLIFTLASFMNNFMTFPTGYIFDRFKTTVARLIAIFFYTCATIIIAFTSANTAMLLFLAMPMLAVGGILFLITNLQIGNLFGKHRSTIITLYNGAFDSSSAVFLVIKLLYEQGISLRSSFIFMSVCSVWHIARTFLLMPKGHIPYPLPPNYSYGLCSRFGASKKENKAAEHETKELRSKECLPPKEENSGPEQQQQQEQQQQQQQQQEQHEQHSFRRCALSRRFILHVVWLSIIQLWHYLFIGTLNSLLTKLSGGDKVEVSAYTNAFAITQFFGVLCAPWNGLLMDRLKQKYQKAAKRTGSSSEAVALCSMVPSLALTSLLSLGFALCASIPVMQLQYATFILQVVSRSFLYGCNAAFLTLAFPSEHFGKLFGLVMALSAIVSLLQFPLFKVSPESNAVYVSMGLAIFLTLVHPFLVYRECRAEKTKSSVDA
Put plainly: Radiolabelled substrate uptake (oil-stop, 2 s) in HEK293-mslc43a3 cells. Type of experiment: cell-based. As for the experimental part: Harvested cells were suspended in nominally sodium-free N-methyl-D-glucamine (NMG) buffer (140 mM NMG, 5 mM KCl, 4.2 mM KHCO3, 0.36 mM K2HPO4, 0.44 mM KH2PO4, 0.5 mM MgCl2, 1.3 mM CaCl2, 10 mM HEPES, pH 7.4), to minimize potential contribution of sodium-dependent concentrative nucleoside transporter-mediated uptake. Additionally, cells were incubated for 15 minutes at room temperature with 10 μM dipyridamole (DY), an equilibrative nucleoside transporter (ENT) inhibitor, to block equilibrative nucleoside transporter–mediated uptake. The substrate uptake assay was initiated by adding 250 μL cell suspension to 250 μL [^3H] labeled substrate, layered over 21:4 silicone:mineral oil (200 μL) in 1.5 mL microcentrifuge tubes (conducted at room temperature). The uptake reaction was terminated after 2 seconds by centrifugation of the cells through the oil layer at ~10,000 g. […] The resulting cell pellet was digested in 250 μL 1 M NaOH overnight (~16 hours), with 220 μL aliquots of digested cells assessed for radioactive content using standard liquid scintillation counting techniques in a Beckman Coulter LS6500 scintillation system (Brea, CA).
In transfected-HEK293 cell lines, total uptake was defined as uptake of radiolabeled substrate in cells overexpressing recombinant hENBT1 or mENBT1. […] ENBT1-mediated uptake was calculated as total uptake minus the non-mediated uptake. […]

The subject of a further experiment is HEK293-hSLC43A3 cells. Nature of the experiment: MTT cell viability assay, HEK293-hSLC43A3. Type of experiment: cell-based, human. As for the experimental part: as §1
Background: Tetrazolium dyes change colour on reduction, which living cells bring about.

In another experiment the test system is MOLT-4 cells. Nature of the experiment: MTT cell viability assay, MOLT-4. The conditions noted are these: for EC50: Homo sapiens, MOLT-4, 48 h, read-out: first-phase EC50 cell viability. Type of experiment: cell-based, human. On the procedure: as §1
The next experiment has as its system HEK293-EV cells. Put plainly: MTT cell viability assay, HEK293-EV. It counts as cell-based, human. The conditions noted are these: Homo sapiens, 48 h, first-phase EC50 where biphasic. As for the experimental part: as §1

As to `Sc1ncnc2nc[nH]c12` [6-MP, 6-Mercaptopurine], the EC50 (usually the concentration at which the effect is half-maximal) in the experiment on L1210 cells amounted to 600 ± 200 nM; in the experiment with HEK293-hSLC43A3 cells (Homo sapiens, HEK293-hSLC43A3, 48 h, MTT, first-phase EC50 where biphasic), 990 ± 90 nM; in the experiment on MOLT-4 cells (MTT, biphasic curve (Fig 10A)) it was 700 ± 200 nM; with MOLT-4 cells (in absence of DY, solvent DMSO present), 500 ± 100 nM; in the experiment with HEK293-EV cells, 18800 ± 510 nM. The “6-MP Km relative to adenine Km” value in experiment [1] is 3 fold. Further, in experiment [1], the “6-MP Vmax relative to adenine Vmax” value is reported as 3 fold. Also, the “shift in EC50 (increased sensitivity) relative to HEK293-EV cells” value with HEK293-hSLC43A3 cells (HEK293-hSLC43A3 vs HEK293-EV) is listed as 19 fold. For the same compound, the “increase in 6-MP sensitivity on co-treatment with DY” value with MOLT-4 cells (MOLT-4, 6-MP + DY vs 6-MP + solvent) stood at 2 fold.
